According to PubChem BioAssay (NCI):
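Five concentrations, 48 hours, 96-well plates. GI50 is the concentration that inhibits growth by half. At the TGI there is no net growth.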

Key:
Test in all cases: DTP human tumour cell line panel, 48 h; in the data active means GI50 below about 0.43 µM; inactive means the rest
[1] = system: 786-0 renal
[2] = system: A498 renal
[3] = system: A549 NSCLC
[4] = system: ACHN renal
[5] = system: BT-549 breast
[6] = system: CAKI-1 renal
[7] = system: CCRF-CEM leukemia
[8] = system: COLO 205 colon
[9] = system: DU-145 prostate
[10] = system: EKVX NSCLC
[11] = system: HCC-2998 colon
[12] = system: HCT-116 colon
[13] = system: HCT-15 colon
[14] = system: HL-60(TB) leukemia
[15] = system: HOP-62 NSCLC
[16] = system: HOP-92 NSCLC
[17] = system: HS 578T breast
[18] = system: HT29 colon
[19] = system: IGROV1 ovarian
[20] = system: K-562 leukemia
[21] = system: KM12 colon
[22] = system: LOX IMVI melanoma
[23] = system: M14 melanoma
[24] = system: MALME-3M melanoma
[25] = system: MCF7 breast
[26] = system: MDA-MB-231 breast
[27] = system: MDA-MB-435
[28] = system: MOLT-4 leukemia
[29] = system: NCI-H226 lung
[30] = system: NCI-H23 lung
[31] = system: NCI-H460 lung
[32] = system: NCI-H522 lung
[33] = system: NCI/ADR-RES ovarian
[34] = system: OVCAR-3 ovarian
[35] = system: OVCAR-4 ovarian
[36] = system: OVCAR-5 ovarian
[37] = system: OVCAR-8 ovarian
[38] = system: PC-3 prostate
[39] = system: RPMI-8226 leukemia
[40] = system: RXF 393 renal
[41] = system: SF-268 CNS
[42] = system: SF-295 CNS
[43] = system: SF-539 CNS
[44] = system: SK-MEL-2 melanoma
[45] = system: SK-MEL-28 melanoma
[46] = system: SK-MEL-5 melanoma
[47] = system: SK-OV-3 ovarian
[48] = system: SN12C renal
[49] = system: SNB-19 CNS
[50] = system: SNB-75 CNS
[51] = system: SR leukemia
[52] = system: SW-620 colon
[53] = system: T-47D breast
[54] = system: TK-10 renal
[55] = system: U251 CNS
[56] = system: UACC-257 melanoma
[57] = system: UACC-62 melanoma
[58] = system: UO-31 renal

O=c1cc(-c2ccccc2)nc2cc(-c3ccco3)[nH]n12
79.7 µM: TGI [9]
89.9 µM: TGI [39]
inactive: GI50 [1] 31 µM | GI50 [2] 3.6 µM | GI50 [3] 12.6 µM | GI50 [4] 22.6 µM | GI50 [5] 14.8 µM | GI50 [6] 5.21 µM | GI50 [7] 16.3 µM | GI50 [8] 6.65 µM | GI50 [9] 19.5 µM | GI50 [10] 15.6 µM | GI50 [11] 13.3 µM | GI50 [12] 15.7 µM | GI50 [13] 6.16 µM | GI50 [14] 11.1 µM | GI50 [15] 13.4 µM | GI50 [16] 10.5 µM | GI50 [17] 7.1 µM | GI50 [18] 4.22 µM | GI50 [19] 7.91 µM | GI50 [20] 4.06 µM | GI50 [21] 3.26 µM | GI50 [22] 15.2 µM | GI50 [23] 9.45 µM | GI50 [24] 3.47 µM | GI50 [25] 0.554 µM | GI50 [26] 7.84 µM | GI50 [27] 1.97 µM | GI50 [28] 10.7 µM | GI50 [29] 47.9 µM | GI50 [30] 13.2 µM | GI50 [31] 4.49 µM | GI50 [32] 6.77 µM | GI50 [33] 11.4 µM | GI50 [34] 10.8 µM | GI50 [35] 23 µM | GI50 [36] 42.2 µM | GI50 [37] 18 µM | GI50 [38] 15 µM | GI50 [39] 13.7 µM | GI50 [40] 18.9 µM | GI50 [41] 14.9 µM | GI50 [42] 3.64 µM | GI50 [43] 13.3 µM | GI50 [44] 6.53 µM | GI50 [45] 8.78 µM | GI50 [46] 6.58 µM | GI50 [47] 14.2 µM | GI50 [48] 18.5 µM | GI50 [49] 12.6 µM | GI50 [50] 12.5 µM | GI50 [51] 3.14 µM | GI50 [52] 4.51 µM | GI50 [53] 4.44 µM | GI50 [54] 19.8 µM | GI50 [55] 4.74 µM | GI50 [56] 17.3 µM | GI50 [57] 5.66 µM | GI50 [58] 7.92 µM
93.3 µM: TGI [16]
50.9 µM: TGI [33]
60 µM: TGI [19]
22.1 µM: TGI [46]
25.6 µM: TGI [42]
> 100 µM: TGI [1] | TGI [3] | TGI [4] | TGI [5] | TGI [7] | TGI [11] | TGI [12] | TGI [13] | TGI [14] | TGI [15] | TGI [18] | TGI [20] | TGI [22] | TGI [23] | TGI [25] | TGI [26] | TGI [28] | TGI [29] | TGI [35] | TGI [36] | TGI [37] | TGI [38] | TGI [40] | TGI [41] | TGI [45] | TGI [48] | TGI [49] | TGI [50] | TGI [52] | TGI [53] | TGI [55] | TGI [56] | TGI [57]
94.5 µM: TGI [24]
59.8 µM: TGI [58]
50.6 µM: TGI [21]
54.2 µM: TGI [44]
82.8 µM: TGI [47]
82.5 µM: TGI [51]
96.9 µM: TGI [54]
40.7 µM: TGI [32]
20.6 µM: TGI [31]
78.3 µM: TGI [10]
89.1 µM: TGI [30]
5.67 µM: TGI [27]
28.6 µM: TGI [2]
55.4 µM: TGI [6]
37.1 µM: TGI [34]
78.9 µM: TGI [43]
44 µM: TGI [8]
37.3 µM: TGI [17]

COc1cc(/C=N/Nc2ncnc3c2cnn3Cc2ccccc2)ccc1O
19.1 µM: TGI [54]
> 22.8 µM: TGI [32]
11.4 µM: TGI [50]
15.3 µM: TGI [35]
> 25 µM: TGI [2] | TGI [4] | TGI [5] | TGI [6] | TGI [7] | TGI [8] | TGI [9] | TGI [10] | TGI [11] | TGI [12] | TGI [13] | TGI [14] | TGI [18] | TGI [19] | TGI [20] | TGI [21] | TGI [22] | TGI [23] | TGI [24] | TGI [25] | TGI [26] | TGI [27] | TGI [28] | TGI [29] | TGI [30] | TGI [31] | TGI [33] | TGI [36] | TGI [38] | TGI [39] | TGI [42] | TGI [44] | TGI [45] | TGI [46] | TGI [48] | TGI [49] | TGI [51] | TGI [52] | TGI [53] | TGI [55] | TGI [56] | TGI [57]
14.3 µM: TGI [41]
11.9 µM: TGI [58]
inactive: GI50 [1] 6.92 µM | GI50 [2] > 18.3 µM | GI50 [3] 8.69 µM | GI50 [4] 4.13 µM | GI50 [5] 12.2 µM | GI50 [6] > 19.9 µM | GI50 [7] > 6.7 µM | GI50 [8] 10.6 µM | GI50 [9] 12.2 µM | GI50 [10] > 25 µM | GI50 [11] 15.2 µM | GI50 [12] 14 µM | GI50 [13] > 25 µM | GI50 [14] > 18.5 µM | GI50 [15] 5.24 µM | GI50 [16] 0.83 µM | GI50 [17] 4.16 µM | GI50 [18] 14.9 µM | GI50 [19] 14.8 µM | GI50 [20] > 6.57 µM | GI50 [21] 7.68 µM | GI50 [22] > 17.7 µM | GI50 [23] > 25 µM | GI50 [24] 7.14 µM | GI50 [25] > 18 µM | GI50 [26] 3.43 µM | GI50 [27] > 23.1 µM | GI50 [28] > 25 µM | GI50 [29] 10.3 µM | GI50 [30] 11.9 µM | GI50 [31] 8.98 µM | GI50 [32] 5.37 µM | GI50 [33] 7.35 µM | GI50 [34] 6.8 µM | GI50 [35] 5.05 µM | GI50 [36] > 25 µM | GI50 [37] 5.85 µM | GI50 [38] 11.7 µM | GI50 [39] > 18.5 µM | GI50 [40] 4.7 µM | GI50 [41] 5.34 µM | GI50 [42] > 25 µM | GI50 [43] 8.12 µM | GI50 [44] 16.7 µM | GI50 [45] > 19.6 µM | GI50 [46] 12.2 µM | GI50 [47] 5.99 µM | GI50 [48] > 15.8 µM | GI50 [49] 9.22 µM | GI50 [50] 3.29 µM | GI50 [51] > 25 µM | GI50 [52] > 25 µM | GI50 [53] 9.57 µM | GI50 [54] 6.39 µM | GI50 [55] 6.51 µM | GI50 [56] > 16.7 µM | GI50 [57] 10.4 µM | GI50 [58] 1.93 µM
> 19.7 µM: TGI [34]
11.8 µM: TGI [15]
24.4 µM: TGI [43]
> 23.9 µM: TGI [3]
8.86 µM: TGI [16]
18.8 µM: TGI [1]
> 21.2 µM: TGI [17]
16.8 µM: TGI [47]
> 19.8 µM: TGI [37]
19.2 µM: TGI [40]
